Results from US9314485B2, “Use of PI3K M-TOR and AKT inhibitors to induce FOXP3 expression and generate regulatory T cells” (Medical Research Council, priority 2006, dated 2016).

Tests used:
ATR = ATR (Homo sapiens, UniProt Q13535); conditions: unit inferred; read-out: Specificity for ATR (IC50 determined in vitro); cited from earlier work
PI3KC2γ = PI3KC2γ (Homo sapiens, UniProt O75747); conditions: unit inferred; read-out: Specificity for PI3KC2γ (IC50 determined in vitro); cited from earlier work
PI4KIIIα = PI4KIIIα (Homo sapiens, UniProt P42356); conditions: unit inferred; read-out: Specificity for PI4KIIIα (IC50 determined in vitro); cited from earlier work
PI3KC2β = PI3KC2β (Homo sapiens, UniProt O00750); conditions: unit inferred; read-out: Specificity for PI3KC2β (IC50 determined in vitro); cited from earlier work
Sequence of PI3KC2β (O00750 whole entry, species assumed): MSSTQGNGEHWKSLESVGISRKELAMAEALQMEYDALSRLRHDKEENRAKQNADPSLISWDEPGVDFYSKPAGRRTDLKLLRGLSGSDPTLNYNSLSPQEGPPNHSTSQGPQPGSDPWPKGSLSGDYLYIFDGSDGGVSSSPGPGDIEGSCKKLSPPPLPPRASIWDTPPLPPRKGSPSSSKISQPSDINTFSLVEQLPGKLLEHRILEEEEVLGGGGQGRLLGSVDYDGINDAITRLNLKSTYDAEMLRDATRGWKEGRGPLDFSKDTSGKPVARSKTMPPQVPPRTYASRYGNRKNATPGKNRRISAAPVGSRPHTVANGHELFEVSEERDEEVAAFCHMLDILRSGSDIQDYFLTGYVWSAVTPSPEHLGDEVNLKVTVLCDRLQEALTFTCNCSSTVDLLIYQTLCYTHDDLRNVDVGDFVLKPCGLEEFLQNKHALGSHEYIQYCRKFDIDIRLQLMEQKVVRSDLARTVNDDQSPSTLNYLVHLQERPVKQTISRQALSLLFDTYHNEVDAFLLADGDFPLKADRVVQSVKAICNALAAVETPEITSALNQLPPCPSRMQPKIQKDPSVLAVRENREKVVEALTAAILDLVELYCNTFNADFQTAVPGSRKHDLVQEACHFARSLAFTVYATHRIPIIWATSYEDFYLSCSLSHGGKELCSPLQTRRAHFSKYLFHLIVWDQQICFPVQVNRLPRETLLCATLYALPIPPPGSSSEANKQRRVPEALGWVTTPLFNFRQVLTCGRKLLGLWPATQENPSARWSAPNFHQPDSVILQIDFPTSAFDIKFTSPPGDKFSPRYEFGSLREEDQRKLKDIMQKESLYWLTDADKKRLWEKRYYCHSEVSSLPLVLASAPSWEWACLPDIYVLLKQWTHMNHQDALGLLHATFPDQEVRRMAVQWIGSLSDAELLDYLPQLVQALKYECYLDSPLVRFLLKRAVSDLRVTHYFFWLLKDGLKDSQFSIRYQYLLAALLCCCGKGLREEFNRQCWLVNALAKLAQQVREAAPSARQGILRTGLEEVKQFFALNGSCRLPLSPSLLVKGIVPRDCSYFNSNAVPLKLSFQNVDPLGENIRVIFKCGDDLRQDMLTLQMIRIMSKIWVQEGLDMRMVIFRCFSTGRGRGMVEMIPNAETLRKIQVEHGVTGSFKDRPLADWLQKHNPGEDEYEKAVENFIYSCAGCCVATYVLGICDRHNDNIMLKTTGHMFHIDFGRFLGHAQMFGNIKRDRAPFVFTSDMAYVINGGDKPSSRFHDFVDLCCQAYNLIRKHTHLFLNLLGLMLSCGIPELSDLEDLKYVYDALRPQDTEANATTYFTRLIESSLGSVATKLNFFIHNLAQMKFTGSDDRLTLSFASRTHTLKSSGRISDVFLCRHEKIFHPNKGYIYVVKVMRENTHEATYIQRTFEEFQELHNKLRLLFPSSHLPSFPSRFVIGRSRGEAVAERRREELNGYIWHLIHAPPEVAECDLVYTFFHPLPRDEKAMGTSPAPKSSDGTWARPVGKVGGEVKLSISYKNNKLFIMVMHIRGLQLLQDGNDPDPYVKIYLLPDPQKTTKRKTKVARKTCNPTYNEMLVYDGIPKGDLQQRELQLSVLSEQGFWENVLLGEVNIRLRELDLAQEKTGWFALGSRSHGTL

PI5P4KIIβ = target: T1, PI5P4KIIβ (Homo sapiens, UniProt P78356); conditions: unit inferred; read-out: Specificity for PI5P4KIIβ (IC50 determined in vitro); cited from earlier work
T1 sequence (P78356 1-416): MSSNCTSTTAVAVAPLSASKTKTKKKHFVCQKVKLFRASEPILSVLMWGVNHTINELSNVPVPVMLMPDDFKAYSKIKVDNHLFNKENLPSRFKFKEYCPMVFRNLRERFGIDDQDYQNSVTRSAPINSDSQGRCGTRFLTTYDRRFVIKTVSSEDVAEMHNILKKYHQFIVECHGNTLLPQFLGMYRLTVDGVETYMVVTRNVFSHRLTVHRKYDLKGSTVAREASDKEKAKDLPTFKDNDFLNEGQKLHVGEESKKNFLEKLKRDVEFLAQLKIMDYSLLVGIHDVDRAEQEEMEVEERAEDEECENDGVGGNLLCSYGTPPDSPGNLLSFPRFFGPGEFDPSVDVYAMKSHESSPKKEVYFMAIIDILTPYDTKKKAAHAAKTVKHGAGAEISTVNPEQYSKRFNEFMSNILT

p110α = p110α (Homo sapiens, UniProt P42336); conditions: unit inferred; read-out: Specificity for p110α (IC50 determined in vitro); cited from earlier work
DNA-PK = DNA-PK (Homo sapiens, UniProt P78527); conditions: unit inferred; read-out: Specificity for DNA-PK (IC50 determined in vitro); cited from earlier work
PI4P5KIα [1] = target: PI4P5KIα (Homo sapiens, UniProt Q99755); conditions: first PI4P5KIα line; unit inferred; read-out: Specificity for PI4P5KIα (IC50 determined in vitro); cited from earlier work
Sequence of PI4P5KIα (Homo sapiens, UniProt Q99755) (Q99755 whole entry): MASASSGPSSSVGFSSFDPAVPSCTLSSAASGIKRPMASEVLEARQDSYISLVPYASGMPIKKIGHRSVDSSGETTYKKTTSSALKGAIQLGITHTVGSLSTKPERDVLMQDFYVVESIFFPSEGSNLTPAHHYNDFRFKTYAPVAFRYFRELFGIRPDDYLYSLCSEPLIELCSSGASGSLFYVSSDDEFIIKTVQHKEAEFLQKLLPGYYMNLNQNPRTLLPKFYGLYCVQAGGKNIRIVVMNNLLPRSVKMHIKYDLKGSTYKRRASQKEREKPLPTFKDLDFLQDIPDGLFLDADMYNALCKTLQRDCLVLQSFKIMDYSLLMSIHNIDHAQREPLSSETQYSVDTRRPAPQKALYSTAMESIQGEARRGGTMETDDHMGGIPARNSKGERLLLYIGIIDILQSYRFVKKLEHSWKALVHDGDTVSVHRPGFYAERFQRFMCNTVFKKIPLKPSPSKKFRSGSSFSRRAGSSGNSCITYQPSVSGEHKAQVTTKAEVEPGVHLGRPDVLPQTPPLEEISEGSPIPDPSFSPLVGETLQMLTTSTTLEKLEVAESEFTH

mTORC1 = mTORC1 (Homo sapiens, UniProt P42345); conditions: unit inferred; read-out: Specificity for mTORC1 (IC50 determined in vitro); cited from earlier work
p110δ = p110δ (Homo sapiens, UniProt O00329); conditions: unit inferred; read-out: Specificity for p110δ (IC50 determined in vitro); cited from earlier work
Sequence of p110δ (O00329 whole entry, species assumed): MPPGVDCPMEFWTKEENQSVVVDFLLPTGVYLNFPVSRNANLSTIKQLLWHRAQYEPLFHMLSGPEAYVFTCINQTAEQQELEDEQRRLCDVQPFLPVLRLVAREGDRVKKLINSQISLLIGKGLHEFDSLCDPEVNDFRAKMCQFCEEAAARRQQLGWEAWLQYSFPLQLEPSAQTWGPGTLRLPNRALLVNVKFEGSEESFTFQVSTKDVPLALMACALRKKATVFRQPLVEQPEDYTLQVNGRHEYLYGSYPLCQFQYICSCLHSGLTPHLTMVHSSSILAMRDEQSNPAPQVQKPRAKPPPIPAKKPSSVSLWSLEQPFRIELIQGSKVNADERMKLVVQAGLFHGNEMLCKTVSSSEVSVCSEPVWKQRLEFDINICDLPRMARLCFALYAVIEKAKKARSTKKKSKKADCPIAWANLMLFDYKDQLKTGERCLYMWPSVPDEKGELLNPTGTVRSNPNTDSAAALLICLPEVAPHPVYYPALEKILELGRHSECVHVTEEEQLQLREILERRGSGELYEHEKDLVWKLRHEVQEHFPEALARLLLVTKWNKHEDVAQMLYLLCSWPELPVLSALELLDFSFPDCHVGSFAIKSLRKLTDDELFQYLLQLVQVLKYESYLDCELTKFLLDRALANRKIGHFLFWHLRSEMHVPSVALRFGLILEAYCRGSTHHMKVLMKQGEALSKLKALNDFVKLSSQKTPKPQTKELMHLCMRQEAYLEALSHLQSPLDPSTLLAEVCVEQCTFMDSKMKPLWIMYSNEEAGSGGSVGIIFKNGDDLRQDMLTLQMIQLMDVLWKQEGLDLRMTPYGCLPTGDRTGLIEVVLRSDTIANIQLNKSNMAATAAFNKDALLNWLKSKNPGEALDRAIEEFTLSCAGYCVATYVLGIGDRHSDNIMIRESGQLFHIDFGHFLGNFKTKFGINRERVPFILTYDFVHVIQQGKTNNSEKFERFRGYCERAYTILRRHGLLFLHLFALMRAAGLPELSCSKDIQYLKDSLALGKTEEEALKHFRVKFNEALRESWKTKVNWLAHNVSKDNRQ

p110β = p110β (Homo sapiens, UniProt P42338); conditions: unit inferred; read-out: Specificity for p110β (IC50 determined in vitro); cited from earlier work
PI4P5KIα [2] = conditions: second PI4P5KIα line; unit inferred; read-out: Specificity for PI4P5KIα (IC50 determined in vitro); cited from earlier work
PI4KIIα = PI4KIIα (Homo sapiens, UniProt Q9BTU6); conditions: unit inferred; read-out: Specificity for PI4KIIα (IC50 determined in vitro); cited from earlier work
Sequence of PI4KIIα (Q9BTU6 whole entry): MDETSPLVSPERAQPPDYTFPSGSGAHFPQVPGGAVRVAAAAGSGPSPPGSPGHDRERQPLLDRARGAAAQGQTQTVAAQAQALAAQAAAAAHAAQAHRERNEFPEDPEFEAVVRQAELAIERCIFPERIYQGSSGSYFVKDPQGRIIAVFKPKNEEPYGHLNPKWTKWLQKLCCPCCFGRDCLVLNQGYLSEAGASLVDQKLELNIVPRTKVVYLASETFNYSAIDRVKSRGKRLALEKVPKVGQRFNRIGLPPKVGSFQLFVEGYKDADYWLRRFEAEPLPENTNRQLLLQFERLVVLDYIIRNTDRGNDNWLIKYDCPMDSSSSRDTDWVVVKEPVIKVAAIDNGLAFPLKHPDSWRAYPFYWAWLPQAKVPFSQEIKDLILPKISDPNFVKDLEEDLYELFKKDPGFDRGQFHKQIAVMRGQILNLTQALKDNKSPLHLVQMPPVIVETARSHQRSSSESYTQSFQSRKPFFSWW

PI4KIIIβ = PI4KIIIβ (Homo sapiens, UniProt Q9UBF8); conditions: unit inferred; read-out: Specificity for PI4KIIIβ (IC50 determined in vitro); cited from earlier work
mTORC2 = mTORC2 (Homo sapiens, UniProt P42345); conditions: unit inferred; read-out: Specificity for mTORC2 (IC50 determined in vitro); cited from earlier work
p110γ = p110γ (Homo sapiens, UniProt P48736); conditions: unit inferred; read-out: Specificity for p110γ (IC50 determined in vitro); cited from earlier work
ATM = ATM (Homo sapiens, UniProt Q13315); conditions: unit inferred; read-out: Specificity for ATM (IC50 determined in vitro); cited from earlier work
PI3KC2α = PI3KC2α (Homo sapiens, UniProt O00443); conditions: unit inferred; read-out: Specificity for PI3KC2α (IC50 determined in vitro); cited from earlier work
[3] = test system: naive CD62LhiCD4+CD25− LN T cells; experiment: Foxp3 induction in newly activated naive CD4 T cells (intracellular staining); format: cell-based, mouse
Method: Mouse strains, cell sorting and culture Animal work was carried out according the Animals (Scientific Procedures) Act, UK. Lymph node (LN) cells were stained, analysed and sorted by flow cytometry as described (Cobb et al 2005 J. Exp. Med. 201: 1367-1373). Intracellular staining for Foxp3 protein was done as advised by the manufacturers (eBiosciences.com). The phosphorylation syatus of S6 ribosomal protein was determined using anti pS6 Ser235/236 (Cellsignaling cat.no. 2211, http://www.cellsignal.com) using the eBioscience Foxp3 staining kit and anti rabbit IgG-FITC or IgG-Cy5 (Jackson Immunoresearch). For induction of Foxp3 expression, sorted LN CD4+ CD25− CD62Lhi T cells were cultured at 1-3×10^6/ml with plate bound anti-TCRβ. […] After 18 hours the cells were either left in place for continued TCR stimulation or moved to uncoated wells with the indicated additives. To assess regulatory function, CD4 T cells cultured as indicated were titrated into round bottom wells containing either 1×10^5 CFSE labeled total LN cells or 5×10^4 CFSE labeled CD4^+ CD25^− T cells and 1×10^5 mitomycin-C treated (25 μg/ml, 20 min, 37° C.) T cell depleted splenocytes with the indicated concentrations of anti CD3 (2C11, Pharmingen). CD4 T cell CFSE profiles were recorded between 48 and 72 hours later.
Mice, Cell Sorting and Culture. Animal work was carried out according to the Animals (Scientific Procedures) Act, UK. Lymph node (LN) cells or thymocytes from wild type were stained, analysed and sorted by flow cytometry as described (Thompson et al., 2007 Immunity VoI 26 pp 335-344) from wild type (C57BL/6, BALB/c or C57BL/6×129) mice or from Rag1 deficient H2^b AND TCR transgenic mice. Antigen presenting cells were derived from bone marrow in the presence of GM-CSF and incubated with antigenic peptide. Intracellular staining for Foxp3 protein was done as advised by the manufacturers (eBiosciences.com). The phosphorylation status of S6 ribosomal protein was determined using anti pS6 Ser235/236 (Cell Signaling cat.no. 2211, http://www.cellsignal.com) using the eBioscience Foxp3 staining kit and anti rabbit IgG-FITC or IgG-Cy5 (Jackson ImmunoResearch). […] After 18 hours the cells were either left in place for continued TCR stimulation or moved to uncoated wells with the indicated additives. To assess regulatory function, CD4 T cells cultured as indicated were titrated into round bottom wells containing either 1×10^5 CFSE labeled total LN cells or 5×10^4 CFSE labeled CD4^+CD25^− T cells and 1×10^5 mitomycin-C treated (25 μg/ml, 20 min, 37° C.) T cell depleted splenocytes with the indicated concentrations of anti CD3 (2C11, Pharmingen). CD4 T cell CFSE profiles were recorded between 48 and 72 hours later.

hsVPS34 = hsVPS34 (Homo sapiens, UniProt Q8NEB9); conditions: unit inferred; read-out: Specificity for hsVPS34 (IC50 determined in vitro); cited from earlier work
Sequence of hsVPS34 (Q8NEB9 whole entry): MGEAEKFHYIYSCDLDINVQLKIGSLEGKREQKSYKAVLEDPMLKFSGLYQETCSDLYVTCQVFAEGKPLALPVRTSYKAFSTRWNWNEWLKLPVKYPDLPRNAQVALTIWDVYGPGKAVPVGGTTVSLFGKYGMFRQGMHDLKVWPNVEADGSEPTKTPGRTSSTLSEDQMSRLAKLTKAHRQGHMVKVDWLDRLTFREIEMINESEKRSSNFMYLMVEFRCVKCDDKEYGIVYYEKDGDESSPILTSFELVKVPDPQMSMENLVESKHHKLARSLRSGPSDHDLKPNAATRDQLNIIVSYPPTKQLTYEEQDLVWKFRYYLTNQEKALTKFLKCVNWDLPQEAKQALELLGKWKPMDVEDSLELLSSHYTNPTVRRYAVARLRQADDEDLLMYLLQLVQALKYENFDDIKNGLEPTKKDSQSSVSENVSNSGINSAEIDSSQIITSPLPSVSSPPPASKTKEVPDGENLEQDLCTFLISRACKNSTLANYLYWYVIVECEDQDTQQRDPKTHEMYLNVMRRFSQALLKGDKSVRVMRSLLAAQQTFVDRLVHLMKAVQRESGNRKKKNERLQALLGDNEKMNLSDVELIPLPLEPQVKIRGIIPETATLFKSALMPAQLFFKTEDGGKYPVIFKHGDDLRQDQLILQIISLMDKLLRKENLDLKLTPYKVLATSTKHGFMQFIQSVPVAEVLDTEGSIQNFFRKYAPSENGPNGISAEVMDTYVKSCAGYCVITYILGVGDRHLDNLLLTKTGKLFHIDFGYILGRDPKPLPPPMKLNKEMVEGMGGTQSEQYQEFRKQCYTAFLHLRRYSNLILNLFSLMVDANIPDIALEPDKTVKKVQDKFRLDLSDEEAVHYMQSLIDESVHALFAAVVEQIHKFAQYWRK

## Cc1ccccc1Oc1cccc2c(=O)cc(N3CCOCC3)[nH]c12 [TGX115]
ATR
  IC50: > 100 µM
PI3KC2γ
  IC50: 100 µM
PI4KIIIα
  IC50: > 100 µM
PI3KC2β
  IC50: 50 µM
PI5P4KIIβ
  IC50: > 100 µM
p110α
  IC50: 61 µM
DNA-PK
  IC50: 1.2 µM
PI4P5KIα [1]
  IC50: > 100 µM
mTORC1
  IC50: > 100 µM
p110δ
  IC50: 0.63 µM
p110β
  IC50: 0.13 µM
PI4P5KIα [2]
  IC50: > 100 µM
PI4KIIα
  IC50: > 100 µM
PI4KIIIβ
  IC50: > 100 µM
mTORC2
  IC50: > 100 µM
p110γ
  IC50: 100 µM
ATM
  IC50: 20 µM
PI3KC2α
  IC50: > 100 µM
[3]; 0.1 μM
  effect on Foxp3 expression at 0.1 μM: did not affect Foxp3 expression
[3]
  effect on Foxp3 expression at 10 μM: slight impact on Foxp3 expression
[3]; listed as TGX-115
  effect on Foxp3 expression at 10 μM: very little effect
hsVPS34
  IC50: 5.2 µM
